13 molecules from ChEMBL document CHEMBL3734667 (Bioorg Med Chem, 2015) can be followed below.

The nature of data set [1]: Inhibition of HCV helicase. On the set-up: species or system Hepacivirus hominis.
Data set [2] deals with Respiratory syncytial virus. Briefly: Antiviral activity against RSV. Conditions: human respiratory syncytial virus. It counts as functional, organism-based.
Data set [3] is described as follows: Cytotoxicity against human MT4 cells assessed as cell viability after 96 hrs by MTT assay. Format: cell-based.
Data set [4] is described as follows: Cytotoxicity against MDBK cells assessed as cell viability after 48 to 96 hrs by MTT assay. It counts as cell-based, Bos taurus. Conditions: cattle.
The nature of data set [5]: Cytotoxicity against BHK cells assessed as cell viability after 48 to 96 hrs by MTT assay. The conditions noted are these: hamster. It counts as cell-based, Mesocricetus auratus.
Data set [6] is described as follows: Cytotoxicity against african green monkey Vero 76 cells assessed as cell viability after 48 to 96 hrs by crystal violet staining method. Format: cell-based. The conditions noted are these: chlorocebus sabaeus.
The test system of data set [7] is Bovine viral diarrhea virus 1. Briefly: Antiviral activity against BVDV infected in MDBK cells assessed as inhibition of virus-induced cytopathogenicity after 3 to 4 days by MTT assay. Format: functional, organism-based. Conditions: Bovine viral diarrhea virus isolates and strains.
The subject of the next data set is Yellow fever virus. Briefly: Antiviral activity against YFV infected in BHK-21 cells assessed as inhibition of virus-induced cytopathogenicity after 3 to 4 days by MTT assay. Format: functional, organism-based.
In data set [8] the test system is Mammalian orthoreovirus 1. Briefly: Antiviral activity against Reo-1 virus infected in BHK-21 cells assessed as inhibition of virus-induced cytopathogenicity after 3 to 4 days by MTT assay. It counts as functional, cell-based. Conditions: Mammalian orthoreovirus 1, BHK-21.
Data set [9] concerns Coxsackievirus B5. The data set is described as follows: Antiviral activity against human CVB5 infected in african green monkey Vero76 cells assessed as inhibition of virus-induced cytopathogenicity after 3 days by plaque reduction assay. It counts as functional, organism-based. Conditions: Enterovirus B, Vero 76, 72 h.
In the next data set the test system is Human orthopneumovirus. Briefly: Antiviral activity against human RSV infected in african green monkey Vero76 cells assessed as inhibition of virus-induced cytopathogenicity after 5 days by plaque reduction assay. The conditions noted are these: human respiratory syncytial virus, Vero 76, 120 h. It counts as functional, organism-based.
Data set [10] deals with Poliovirus 1. Briefly: Antiviral activity against Human poliovirus 1 Sabin infected in african green monkey Vero76 cells assessed as inhibition of virus-induced cytopathogenicity by plaque reduction assay. It counts as functional, organism-based. Conditions: Enterovirus C, Vero 76.
Data set [11] in a line: Selectivity index, ratio of CC50 for MDBK cells to EC50 for BVDV. Further details: species or system Bovine viral diarrhea virus 1.
Data set [12] can be described thus: Selectivity index, ratio of CC50 for BHK-21 cells to EC50 for YFV. Further details: species or system Yellow fever virus.
Data set [13] can be described thus: Selectivity index, ratio of CC50 for BHK-21 cells to EC50 for WNV. On the set-up: species or system West Nile virus.
Data set [14] is described as follows: Selectivity index, ratio of CC50 for african green monkey Vero76 cells to EC50 for human CVB5. On the set-up: species or system Coxsackievirus B5, Vero 76.
Data set [15] is described as follows: Selectivity index, ratio of CC50 for african green monkey Vero76 cells to EC50 for human RSV. Further details: species or system human respiratory syncytial virus, Vero 76.
Data set [16] deals with Human immunodeficiency virus 1. The data set is described as follows: Antiviral activity against HIV-1 infected in MT4 cells assessed as inhibition of virus-induced cytopathogenicity after 4 days by MTT assay. Format: functional, organism-based. Conditions: Human immunodeficiency virus 1, MT4, 96 h.
For a further data set, the system named is dengue virus type 2. Briefly: Antiviral activity against DENV-2 infected in BHK-21 cells assessed as inhibition of virus-induced cytopathogenicity after 3 to 4 days by MTT assay. Format: functional, organism-based.
Data set [17] in a line: Selectivity index, ratio of CC50 for BHK-21 cells to EC50 for DENV-2.
The test system of another data set is West Nile virus. The data set is described as follows: Antiviral activity against WNV infected in BHK-21 cells assessed as inhibition of virus-induced cytopathogenicity after 3 to 4 days by MTT assay. It counts as functional, organism-based.
The next data set concerns Human alphaherpesvirus 1. The data set is described as follows: Antiviral activity against HSV1. Format: functional, organism-based.
For data set [18], the system named is Vesicular stomatitis virus. The data set is described as follows: Antiviral activity against VSV. It counts as functional, organism-based.
The test system of another data set is Vaccinia virus. The data set is described as follows: Antiviral activity against Vaccinia virus. It counts as functional, organism-based. The conditions noted are these: Orthopoxvirus vaccinia.
Data set [19] is described as follows: Selectivity index, ratio of CC50 for human MT4 cells to EC50 for HIV-1. It counts as toxicity, cell-based. Conditions: human immunodeficiency virus 1, MT4 cells; read-out: Ratio CC50/EC50.
The next data set deals with Coxsackievirus B2. Briefly: Antiviral activity against Human coxsackievirus B2. Format: functional, organism-based. The conditions noted are these: Enterovirus B.
Data set [20] in a line: Selectivity index, ratio of CC50 for african green monkey Vero76 cells to EC50 for human Sb-1. Further details: species or system Human poliovirus 1 strain Sabin, Vero 76.
The subject of a further data set is Semliki Forest virus. The data set is described as follows: Antiviral activity against Semliki forest virus assessed as inhibition of virus growth at 170 uM. It counts as functional.
Data set [21] has as its target Peroxisome proliferator-activated receptor alpha (Homo sapiens, UniProt Q07869). Briefly: Agonist activity at human PPAR alpha in human HepG2 cells after 20 hrs by luciferase reporter assay. It counts as cell-based.
In data set [22] the target is Peroxisome proliferator-activated receptor gamma (Homo sapiens, UniProt P37231). The data set is described as follows: Agonist activity at human PPAR gamma in human HepG2 cells after 20 hrs by luciferase reporter assay. It counts as cell-based.
The test system of the next data set is Influenza B virus. Briefly: Antiviral activity against Influenza B virus. Format: functional.
The test system of data set [23] is Poliovirus 1. The data set is described as follows: Antiviral activity against Human poliovirus 1 Sabin. Format: functional, organism-based. Conditions: Enterovirus C.
Data set [24] concerns Coxsackievirus B5. The data set is described as follows: Ratio of NM108 EC50 to compound EC50 for human CVB5. It counts as functional.
The subject of data set [25] is Coxsackievirus B5. Briefly: Ratio of NM176 EC50 to compound EC50 for human CVB5. It counts as functional.
The next data set relates to Poliovirus 2. The data set is described as follows: Antiviral activity against Human poliovirus 2. Format: functional. Conditions: Enterovirus C.

Chain of Peroxisome proliferator-activated receptor gamma (P37231 whole entry): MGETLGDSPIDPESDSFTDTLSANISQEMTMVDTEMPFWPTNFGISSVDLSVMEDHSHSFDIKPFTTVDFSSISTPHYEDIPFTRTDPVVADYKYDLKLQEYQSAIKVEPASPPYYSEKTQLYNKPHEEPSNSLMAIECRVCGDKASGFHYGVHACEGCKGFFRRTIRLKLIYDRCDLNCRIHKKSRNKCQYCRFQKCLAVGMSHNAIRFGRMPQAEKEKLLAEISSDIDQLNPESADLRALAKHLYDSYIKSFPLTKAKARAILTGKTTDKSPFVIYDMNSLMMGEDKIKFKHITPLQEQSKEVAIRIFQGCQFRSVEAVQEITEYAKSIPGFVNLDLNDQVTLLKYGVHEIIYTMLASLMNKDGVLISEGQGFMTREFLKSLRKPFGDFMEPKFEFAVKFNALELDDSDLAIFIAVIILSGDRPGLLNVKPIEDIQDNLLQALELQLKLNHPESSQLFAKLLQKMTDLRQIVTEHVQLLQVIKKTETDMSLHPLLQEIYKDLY
Chain of Peroxisome proliferator-activated receptor alpha (Q07869 whole entry): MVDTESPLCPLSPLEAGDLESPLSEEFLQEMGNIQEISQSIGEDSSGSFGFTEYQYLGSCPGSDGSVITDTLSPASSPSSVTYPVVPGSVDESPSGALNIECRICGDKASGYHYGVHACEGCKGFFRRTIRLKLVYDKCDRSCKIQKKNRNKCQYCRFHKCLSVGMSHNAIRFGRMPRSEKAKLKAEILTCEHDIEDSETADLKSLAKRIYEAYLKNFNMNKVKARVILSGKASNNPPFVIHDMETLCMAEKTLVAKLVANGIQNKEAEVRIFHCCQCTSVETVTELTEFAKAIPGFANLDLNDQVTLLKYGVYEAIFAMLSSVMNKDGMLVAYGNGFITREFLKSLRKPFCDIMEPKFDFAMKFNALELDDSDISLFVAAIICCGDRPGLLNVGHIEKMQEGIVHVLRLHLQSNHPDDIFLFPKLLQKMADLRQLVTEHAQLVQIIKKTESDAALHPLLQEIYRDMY

`CCCn1nc2c(Br)c(Br)c(Br)c(Br)c2n1` returned an IC50 in data set [1] of 5.8 µM.
Regarding `Clc1ccc2c(c1)nc(Cn1nnc3ccccc31)n2CC[C@@H]1CCCN2CCCC[C@H]12`, the EC50 in [2] was 0.02 µM.
Turning to `Oc1ccc(-n2nc3cc(Cl)c(Cl)cc3n2)cc1`, the CC50 at 96 h in data set [3] is 47 µM. Besides, the results for the 50% cytotoxic concentration (CC50) in data set [4], in data set [5] and in data set [6] were 37 µM, 28 µM and 50 µM, respectively. Moreover, the EC50 in [7] is 14 µM; in the data set with Yellow fever virus it was 6 µM; in data set [8], greater than 100 µM; in the data set on Coxsackievirus B5 [9] it was 25 µM; with Human orthopneumovirus, 8 µM; in the data set on Poliovirus 1 [10], greater than 100 µM. The EC50 is greater than 100 µM in [16]; 8 µM in the data set on dengue virus type 2; 13 µM in the data set with West Nile virus; greater than 100 µM in the data set on Human alphaherpesvirus 1; greater than 100 µM in data set [18]; greater than 100 µM with Vaccinia virus. For the same molecule, the “Ratio CC50/EC50” value in data set [11] turned out to be 2.64; in data set [12], 4.67; in [13], 2.15; in [14], 2; in data set [15] it was 6.25; in data set [17] it was 3.5.
Turning to `CN(C)c1cccc(C(=O)OCCn2nc3ccccc3n2)c1`, in [3], the CC50 at 96 h is greater than 100 µM. Besides, the CC50 in data set [4], in [5] and in data set [6] was greater than 100 µM each time. Further, the EC50 is greater than 100 µM in [7]; greater than 100 µM in the data set with Yellow fever virus; greater than 100 µM with Coxsackievirus B5 [9]; greater than 100 µM in the data set with Human orthopneumovirus; 56 µM in data set [16]; greater than 100 µM in data set [18]. Besides, the half-maximal effective concentration (EC50) in the data set on Vaccinia virus is greater than 100 µM. In data set [19], the selectivity ratio is 1.78.
For the molecule `O=c1n(Cc2nc3ccccc3n2CCCCO)c2cnccc2n1C1CC1`, in data set [2], the EC50 is 0.01 µM.
`CCC(=O)Nc1ccc(-n2nc3cc(C)c(C)cc3n2)cc1` showed an EC50 in the data set with Coxsackievirus B2 of 10 µM.
Turning to `Oc1ccc(-n2nc3ccc(C(F)(F)F)cc3n2)cc1`, the 50% cytotoxic concentration (CC50) at 96 h in data set [3] is no less than 100 µM. The CC50 in [4] was 47 µM; in data set [5], 65 µM; in data set [6], greater than 100 µM. For the same molecule, the EC50 in data set [7] is 30 µM; in the data set on Yellow fever virus, 17 µM; in [8], greater than 100 µM; in the data set on Coxsackievirus B5 [9] it was greater than 100 µM; with Human orthopneumovirus, 10 µM; in the data set with Poliovirus 1 [10] it was 80 µM. Also, the half-maximal effective concentration (EC50) is greater than 100 µM in data set [16]; 17 µM in the data set on dengue virus type 2; greater than 100 µM in the data set with West Nile virus; greater than 100 µM in the data set on Human alphaherpesvirus 1; greater than 100 µM in data set [18]; greater than 100 µM in the data set on Vaccinia virus. The “Ratio CC50/EC50” value in data set [11] is recorded as 1.57; in [12], 3.82; in [15], greater than 10; in [20], greater than 1.25; in data set [17] it was 3.82.
For the molecule `O=c1[nH]c2cc(S(=O)(=O)n3nnc4cc(Cl)ccc43)ccc2o1`, the inhibition at 170 µM in the data set with Semliki Forest virus was 99%.
For `Cc1cc(-n2nc3ccccc3n2)cc(C)c1OC(C)(C)C(=O)O`, in [3], the CC50 at 96 h is greater than 100 µM. Moreover, the half-maximal cytotoxic concentration (CC50) is greater than 100 µM in data set [4], greater than 100 µM in data set [5] and no less than 100 µM in data set [6]. In addition, the half-maximal effective concentration (EC50) (in [7]; in the data set with Yellow fever virus; with Coxsackievirus B5 [9]; with Human orthopneumovirus; with Poliovirus 1 [10]; in data set [16]) was greater than 100 µM each time. In addition, the concentration for a half-maximal effect (EC50) was 0.096 µM in data set [21], 0.48 µM in data set [22], greater than 100 µM in data set [18] and greater than 100 µM with Vaccinia virus.
In turn, `OCC1OC(n2nnc3cc(Cl)c(Cl)cc32)C(O)C1O` (stereo unspecified) had an EC75 in the data set on Influenza B virus of 750 µM. In data set [1], this molecule registered an IC50 of 1.5 µM.
For `CC(=O)Nc1ccc(-n2nnc3ccc(C(F)(F)F)cc32)cc1`, a half-maximal response in the data set with Poliovirus 1 [23] (EC50) required 30 µM.
`Cc1ccc2nn(-c3ccc(OCCCC(C)(C)C(=O)O)cc3)nc2c1`: the CC50 at 96 h in data set [3] stood at 53 µM. Further, the CC50 was 24 µM in data set [4], 17 µM in data set [5] and 15 µM in data set [6]. The 50% effective concentration (EC50) was greater than 100 µM in [7]; greater than 100 µM with Yellow fever virus; greater than 100 µM in [8]; 0.15 µM with Coxsackievirus B5 [9]; greater than 100 µM in the data set on Human orthopneumovirus; greater than 100 µM in the data set on Poliovirus 1 [10]. Further, the half-maximal effective concentration (EC50) (in data set [16]; in the data set on Human alphaherpesvirus 1; in [18]; in the data set on Vaccinia virus) was greater than 100 µM each time. For the same molecule, the “Ratio CC50/EC50” value in data set [14] is given as 100. The “Ratio EC50” value with Coxsackievirus B5 [24] was determined as 133; in the data set with Coxsackievirus B5 [25] it was 200.
Consider `Clc1c(Cl)c(Cl)c2[nH]nnc2c1Cl`, for which the concentration for an effect of 75% (EC75) is 3 µM with Influenza B virus and 8.1 µM in the data set with Poliovirus 2.
